Data: paper PMC4774911, “Biochemical Screening of Five Protein Kinases from Plasmodium falciparum against 14,000 Cell-Active Compounds” (PLoS ONE, 2016)
“And” between values parts separate entries of the source, which are not always exact repeats. Equal values may be shown once. Read-outs that look alike come from different tables or passages of the source.

How the values were obtained:
[1] = test system: human kinases in K562 cell extract; assay: Kinobead competition assay, kinome-wide summary; assay type: binding; conditions: for Human kinases with apparent pKd ≥ 4.7 (N = 2) / Human kinases with apparent pKd ≥ 6 (N = 2): K562 extract, number of kinases, 20 μM-0.03 μM compound
Experimental: Kinobeads were prepared as described.

HepG2 cells = conditions: cited from earlier work
P. falciparum 3D7 cells = conditions: cited from earlier work
LOC100128443 = conditions: human
CDC2 = CDC2 (Homo sapiens, UniProt P06493); assay: biochemical
CDC2, sequence (P06493 whole entry): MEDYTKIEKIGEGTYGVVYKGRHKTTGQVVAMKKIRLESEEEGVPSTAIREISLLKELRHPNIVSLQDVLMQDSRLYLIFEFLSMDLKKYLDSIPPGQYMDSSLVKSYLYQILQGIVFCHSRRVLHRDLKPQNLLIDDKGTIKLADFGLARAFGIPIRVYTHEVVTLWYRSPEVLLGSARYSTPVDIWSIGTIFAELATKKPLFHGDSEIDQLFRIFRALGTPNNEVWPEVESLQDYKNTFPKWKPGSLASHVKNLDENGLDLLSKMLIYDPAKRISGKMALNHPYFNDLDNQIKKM

CDC42BPG = CDC42BPG (Homo sapiens, UniProt Q6DT37); assay: biochemical
CDC42BPG, sequence (Q6DT37 whole entry): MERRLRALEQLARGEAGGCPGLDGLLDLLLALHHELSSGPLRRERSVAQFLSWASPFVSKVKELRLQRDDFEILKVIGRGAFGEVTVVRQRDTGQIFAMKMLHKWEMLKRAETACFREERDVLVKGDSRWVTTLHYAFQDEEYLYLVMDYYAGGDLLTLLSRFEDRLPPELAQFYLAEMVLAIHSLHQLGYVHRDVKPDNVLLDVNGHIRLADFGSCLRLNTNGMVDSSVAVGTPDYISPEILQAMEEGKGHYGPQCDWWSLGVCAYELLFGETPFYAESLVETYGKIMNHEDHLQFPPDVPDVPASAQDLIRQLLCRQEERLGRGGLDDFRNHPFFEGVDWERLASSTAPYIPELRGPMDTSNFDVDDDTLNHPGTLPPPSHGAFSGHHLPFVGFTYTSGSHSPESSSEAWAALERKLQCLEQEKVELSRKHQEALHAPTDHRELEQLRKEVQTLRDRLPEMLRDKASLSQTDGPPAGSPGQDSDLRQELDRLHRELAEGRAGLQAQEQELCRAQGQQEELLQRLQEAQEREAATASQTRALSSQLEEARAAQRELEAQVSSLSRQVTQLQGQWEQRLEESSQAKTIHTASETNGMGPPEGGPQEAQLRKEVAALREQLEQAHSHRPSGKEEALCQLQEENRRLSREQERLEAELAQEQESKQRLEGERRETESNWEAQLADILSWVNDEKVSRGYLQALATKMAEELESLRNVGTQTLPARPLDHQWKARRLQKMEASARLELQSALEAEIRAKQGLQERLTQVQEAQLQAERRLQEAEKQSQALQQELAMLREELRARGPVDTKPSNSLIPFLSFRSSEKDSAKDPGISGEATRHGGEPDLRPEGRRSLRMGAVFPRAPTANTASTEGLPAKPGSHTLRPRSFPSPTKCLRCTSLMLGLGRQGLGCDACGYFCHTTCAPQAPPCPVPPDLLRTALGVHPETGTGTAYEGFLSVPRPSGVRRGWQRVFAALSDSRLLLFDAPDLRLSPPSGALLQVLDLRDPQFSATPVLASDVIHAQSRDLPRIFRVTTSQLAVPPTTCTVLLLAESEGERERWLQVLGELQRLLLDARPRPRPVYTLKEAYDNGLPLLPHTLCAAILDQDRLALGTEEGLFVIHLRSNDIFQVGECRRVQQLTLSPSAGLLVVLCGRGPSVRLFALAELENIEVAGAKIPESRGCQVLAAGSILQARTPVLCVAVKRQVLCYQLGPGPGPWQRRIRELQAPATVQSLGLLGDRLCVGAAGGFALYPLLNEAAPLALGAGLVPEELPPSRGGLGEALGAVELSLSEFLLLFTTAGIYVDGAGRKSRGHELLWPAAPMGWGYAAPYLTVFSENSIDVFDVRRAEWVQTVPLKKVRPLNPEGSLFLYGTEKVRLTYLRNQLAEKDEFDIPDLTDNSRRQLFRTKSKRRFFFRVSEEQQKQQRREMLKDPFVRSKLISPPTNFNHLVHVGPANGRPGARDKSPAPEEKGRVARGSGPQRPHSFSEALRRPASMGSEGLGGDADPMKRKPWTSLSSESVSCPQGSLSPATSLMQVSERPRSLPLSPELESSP

LYN = LYN (Homo sapiens, UniProt P07948); assay: biochemical
MARK3 = MARK3 (Homo sapiens, UniProt P27448); assay: biochemical
MARK3, sequence (P27448 whole entry): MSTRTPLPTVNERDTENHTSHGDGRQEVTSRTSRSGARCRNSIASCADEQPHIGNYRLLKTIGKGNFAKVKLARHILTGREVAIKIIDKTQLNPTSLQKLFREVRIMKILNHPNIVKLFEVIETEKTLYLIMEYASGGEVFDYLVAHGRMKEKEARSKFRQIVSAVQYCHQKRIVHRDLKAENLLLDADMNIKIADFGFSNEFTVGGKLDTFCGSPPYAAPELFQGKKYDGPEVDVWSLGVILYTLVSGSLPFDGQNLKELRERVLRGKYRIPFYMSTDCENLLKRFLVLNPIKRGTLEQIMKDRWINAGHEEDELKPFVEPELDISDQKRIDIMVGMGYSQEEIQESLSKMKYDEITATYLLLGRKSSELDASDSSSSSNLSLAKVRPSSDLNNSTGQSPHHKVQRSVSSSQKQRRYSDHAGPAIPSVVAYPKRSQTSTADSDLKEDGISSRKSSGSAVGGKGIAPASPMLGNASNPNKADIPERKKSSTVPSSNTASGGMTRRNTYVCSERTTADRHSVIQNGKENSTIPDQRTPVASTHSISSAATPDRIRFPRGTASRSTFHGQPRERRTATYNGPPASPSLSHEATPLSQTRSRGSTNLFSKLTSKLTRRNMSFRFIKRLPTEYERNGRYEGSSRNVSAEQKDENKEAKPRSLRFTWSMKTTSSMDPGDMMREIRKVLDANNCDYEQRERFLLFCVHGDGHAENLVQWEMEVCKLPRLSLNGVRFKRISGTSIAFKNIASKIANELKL

MASTL = molecular target: T1, MASTL (Homo sapiens, UniProt Q96GX5); assay: biochemical
T1 sequence (Q96GX5 1-879): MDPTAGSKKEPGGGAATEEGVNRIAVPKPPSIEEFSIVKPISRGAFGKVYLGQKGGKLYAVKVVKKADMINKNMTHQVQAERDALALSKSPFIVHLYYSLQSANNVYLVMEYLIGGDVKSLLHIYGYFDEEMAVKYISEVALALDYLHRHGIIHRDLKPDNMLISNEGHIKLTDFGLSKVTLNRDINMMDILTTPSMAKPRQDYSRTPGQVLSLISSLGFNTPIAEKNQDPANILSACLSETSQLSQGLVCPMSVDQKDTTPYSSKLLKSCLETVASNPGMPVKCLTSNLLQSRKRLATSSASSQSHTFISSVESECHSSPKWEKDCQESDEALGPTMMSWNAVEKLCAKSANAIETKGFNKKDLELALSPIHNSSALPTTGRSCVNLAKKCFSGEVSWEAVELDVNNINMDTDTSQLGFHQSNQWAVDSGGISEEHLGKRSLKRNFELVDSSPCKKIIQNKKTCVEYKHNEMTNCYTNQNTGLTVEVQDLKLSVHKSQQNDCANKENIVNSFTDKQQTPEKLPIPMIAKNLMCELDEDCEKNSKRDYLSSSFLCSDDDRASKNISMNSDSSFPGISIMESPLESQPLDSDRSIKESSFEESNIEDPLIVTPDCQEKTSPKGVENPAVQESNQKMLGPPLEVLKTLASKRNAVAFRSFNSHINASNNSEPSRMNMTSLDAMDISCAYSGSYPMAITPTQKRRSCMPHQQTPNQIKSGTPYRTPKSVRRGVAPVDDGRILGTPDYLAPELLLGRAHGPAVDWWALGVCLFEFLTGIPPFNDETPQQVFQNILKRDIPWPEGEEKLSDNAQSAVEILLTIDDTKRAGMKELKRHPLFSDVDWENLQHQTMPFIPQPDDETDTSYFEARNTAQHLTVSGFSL

MERTK = molecular target: T2, MERTK (Homo sapiens, UniProt Q12866); assay: biochemical
T2 sequence (Q12866 1-999): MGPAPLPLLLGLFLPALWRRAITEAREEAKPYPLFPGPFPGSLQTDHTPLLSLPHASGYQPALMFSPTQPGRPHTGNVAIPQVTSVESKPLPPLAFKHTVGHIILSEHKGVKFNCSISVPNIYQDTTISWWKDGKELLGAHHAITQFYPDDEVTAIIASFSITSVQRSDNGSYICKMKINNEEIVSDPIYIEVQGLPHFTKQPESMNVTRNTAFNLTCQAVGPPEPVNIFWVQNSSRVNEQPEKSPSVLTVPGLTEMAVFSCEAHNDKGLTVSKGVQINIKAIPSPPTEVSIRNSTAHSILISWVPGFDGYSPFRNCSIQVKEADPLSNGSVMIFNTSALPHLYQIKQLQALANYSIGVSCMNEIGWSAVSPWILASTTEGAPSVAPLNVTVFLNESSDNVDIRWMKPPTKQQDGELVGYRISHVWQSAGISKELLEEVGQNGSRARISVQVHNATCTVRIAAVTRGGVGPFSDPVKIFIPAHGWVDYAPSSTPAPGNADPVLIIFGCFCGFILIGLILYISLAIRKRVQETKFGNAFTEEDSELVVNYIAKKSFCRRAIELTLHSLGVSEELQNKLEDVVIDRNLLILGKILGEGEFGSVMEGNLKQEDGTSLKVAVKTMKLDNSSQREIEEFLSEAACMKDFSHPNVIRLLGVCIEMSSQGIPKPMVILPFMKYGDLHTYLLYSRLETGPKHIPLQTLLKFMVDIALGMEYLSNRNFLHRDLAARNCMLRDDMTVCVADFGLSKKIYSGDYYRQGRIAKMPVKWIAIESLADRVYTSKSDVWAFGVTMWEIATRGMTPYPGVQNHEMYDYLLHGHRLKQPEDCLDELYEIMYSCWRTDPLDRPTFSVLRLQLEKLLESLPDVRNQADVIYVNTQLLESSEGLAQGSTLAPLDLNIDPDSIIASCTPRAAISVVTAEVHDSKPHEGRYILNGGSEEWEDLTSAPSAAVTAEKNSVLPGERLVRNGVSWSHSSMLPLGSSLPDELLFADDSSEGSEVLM

SIK2 = SIK2 (Homo sapiens, UniProt Q9H0K1); assay: biochemical
SIK2, sequence (Q9H0K1 whole entry): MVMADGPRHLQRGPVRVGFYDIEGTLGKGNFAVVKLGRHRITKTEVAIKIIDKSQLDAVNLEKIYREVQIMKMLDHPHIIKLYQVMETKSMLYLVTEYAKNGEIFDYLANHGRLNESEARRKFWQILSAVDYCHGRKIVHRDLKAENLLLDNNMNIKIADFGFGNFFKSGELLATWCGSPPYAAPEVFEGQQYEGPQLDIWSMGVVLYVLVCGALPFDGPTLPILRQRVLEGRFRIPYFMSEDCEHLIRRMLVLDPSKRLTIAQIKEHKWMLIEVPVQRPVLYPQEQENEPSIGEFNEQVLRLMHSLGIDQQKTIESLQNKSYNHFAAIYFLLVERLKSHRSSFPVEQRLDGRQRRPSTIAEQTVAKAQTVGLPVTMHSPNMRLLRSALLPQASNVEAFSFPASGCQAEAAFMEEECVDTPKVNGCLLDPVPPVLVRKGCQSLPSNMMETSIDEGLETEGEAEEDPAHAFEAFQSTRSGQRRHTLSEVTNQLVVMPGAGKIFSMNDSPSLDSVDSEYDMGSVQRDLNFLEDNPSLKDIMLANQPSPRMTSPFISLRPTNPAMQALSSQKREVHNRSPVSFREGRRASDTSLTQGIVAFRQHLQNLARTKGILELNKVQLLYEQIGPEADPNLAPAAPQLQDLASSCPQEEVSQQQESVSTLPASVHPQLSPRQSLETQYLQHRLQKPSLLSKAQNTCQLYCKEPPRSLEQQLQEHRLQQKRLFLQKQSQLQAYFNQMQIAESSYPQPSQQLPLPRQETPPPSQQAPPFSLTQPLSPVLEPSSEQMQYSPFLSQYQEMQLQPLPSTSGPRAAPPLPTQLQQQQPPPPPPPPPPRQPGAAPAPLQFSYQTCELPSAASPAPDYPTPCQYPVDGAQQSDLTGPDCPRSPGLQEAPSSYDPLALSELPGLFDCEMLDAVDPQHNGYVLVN

TP53RK = molecular target: T3, TP53RK (Homo sapiens, UniProt Q96S44); assay: biochemical
T3 sequence (Q96S44 1-253): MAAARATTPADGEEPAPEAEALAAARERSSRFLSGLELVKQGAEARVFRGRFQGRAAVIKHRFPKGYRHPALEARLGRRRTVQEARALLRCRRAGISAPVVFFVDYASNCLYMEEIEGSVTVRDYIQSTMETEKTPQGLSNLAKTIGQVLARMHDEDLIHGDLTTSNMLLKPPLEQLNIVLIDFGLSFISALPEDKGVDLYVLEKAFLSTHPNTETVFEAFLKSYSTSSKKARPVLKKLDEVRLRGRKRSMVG

TYK2 = TYK2 (Homo sapiens, UniProt P29597); assay: biochemical
TYK2, sequence (P29597 whole entry): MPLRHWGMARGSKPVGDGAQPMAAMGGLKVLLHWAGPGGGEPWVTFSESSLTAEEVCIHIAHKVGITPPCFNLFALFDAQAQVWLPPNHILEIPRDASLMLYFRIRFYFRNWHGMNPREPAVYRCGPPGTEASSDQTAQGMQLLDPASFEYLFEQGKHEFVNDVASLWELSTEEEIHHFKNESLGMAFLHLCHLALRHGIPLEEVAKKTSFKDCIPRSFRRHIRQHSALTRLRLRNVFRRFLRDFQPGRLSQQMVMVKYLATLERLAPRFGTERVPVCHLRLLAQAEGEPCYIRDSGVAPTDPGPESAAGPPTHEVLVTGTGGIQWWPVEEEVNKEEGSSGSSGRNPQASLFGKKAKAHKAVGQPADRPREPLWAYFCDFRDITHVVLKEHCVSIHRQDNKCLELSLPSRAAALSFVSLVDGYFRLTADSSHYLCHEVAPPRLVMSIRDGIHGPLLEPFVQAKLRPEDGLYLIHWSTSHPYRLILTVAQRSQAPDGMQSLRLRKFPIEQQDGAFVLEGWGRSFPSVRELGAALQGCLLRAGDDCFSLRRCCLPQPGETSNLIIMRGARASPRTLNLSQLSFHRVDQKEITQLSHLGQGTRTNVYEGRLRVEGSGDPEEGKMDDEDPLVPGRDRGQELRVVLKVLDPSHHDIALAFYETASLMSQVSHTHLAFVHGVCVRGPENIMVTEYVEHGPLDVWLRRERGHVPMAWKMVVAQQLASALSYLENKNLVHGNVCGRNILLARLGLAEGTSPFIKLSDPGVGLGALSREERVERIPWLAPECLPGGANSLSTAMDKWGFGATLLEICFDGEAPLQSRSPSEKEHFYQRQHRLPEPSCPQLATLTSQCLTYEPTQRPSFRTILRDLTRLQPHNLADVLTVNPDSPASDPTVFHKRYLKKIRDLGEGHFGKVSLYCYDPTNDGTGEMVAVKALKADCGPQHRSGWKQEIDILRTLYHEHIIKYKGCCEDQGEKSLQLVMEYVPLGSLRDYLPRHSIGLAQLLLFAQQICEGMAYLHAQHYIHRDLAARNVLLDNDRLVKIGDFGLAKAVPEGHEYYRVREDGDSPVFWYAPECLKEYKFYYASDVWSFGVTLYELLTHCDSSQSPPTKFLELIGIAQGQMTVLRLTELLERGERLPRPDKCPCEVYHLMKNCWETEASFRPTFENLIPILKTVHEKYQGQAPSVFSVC

[2] = 3D7, downloaded from ChEMBL, ref F.J. Gamo et al., Nature 2010
[3] = P. falciparum 3D7, downloaded from ChEMBL ref F.J. Gamo et al., Nature 2010

Row | SMILES | Human kinases with apparent pKd ≥ 4.7 (N = 2) [1] | Human kinases with apparent pKd ≥ 6 (N = 2) [1] | Inhibition of HepG2 cell growth at 10 μM (HepG2 cells) | IC50 (LOC100128443) | IC50 (CDC2) | IC50 (CDC42BPG) | IC50 (LYN) | IC50 (MARK3) | IC50 (MASTL) | IC50 (MERTK) | IC50 (SIK2) | IC50 (TP53RK) | IC50 (TYK2) | further results
1 | CN1CCN(c2ccc(Nc3ncc(C#N)c(Nc4ccccc4C(N)=O)n3)cc2)CC1.Cl [TCMDC-134116] | 126 | 96 | 43% | 330 nM | 1500 nM | 1000 nM | 280 nM and 350 nM | 120 nM and 140 nM | 280 nM and 610 nM | 630 nM | ≤ 32 nM and 35 nM | 4000 nM | 100 nM and 92 nM | Share of human kinases tested bound with high affinity (pKd ≥ 6) ([1]; K562 extract kinobeads): two thirds; PCT_INHIB_HEPG2 (HepG2 cells; HepG2, downloaded from ChEMBL, ref F.J. Gamo et al., Nature 2010): 43%; PCT_IHB_3D7 (P. falciparum 3D7 cells; [2]): 92%; pXC50_3D7 (P. falciparum 3D7 cells; [2]): 7.405
2 | Cl.NCC1(c2nc(-c3ccc(Cl)c(O)c3)c(-c3ccncc3)[nH]2)CCCCC1 [TCMDC-141154] | 47 | 26 | 48% | > 20000 nM | > 20000 nM | 8000 nM | 1300 nM | > 20000 nM | > 20000 nM | 9300 nM | 570 nM and 530 nM | > 20000 nM | > 20000 nM | PCT_INHIB_HEPG2 (HepG2 cells; HepG2 cells, downloaded from ChEMBL ref F.J. Gamo et al., Nature 2010): 48; PCT_IHB_3D7 (P. falciparum 3D7 cells; [3]): 98; pXC50_3D7 (P. falciparum 3D7 cells; [3]): 6.128
3 | CN(C)CC(O)COc1ccc(Nc2ncc([N+](=O)[O-])c(Nc3ccccc3O)n2)cc1.O=C(O)C(F)(F)F (stereo not shown) [TCMDC-141399] | 63 | 24 | 47% | > 20000 nM | > 20000 nM | 9600 nM | > 20000 nM | 10000 nM and 6600 nM | > 20000 nM | 1100 nM | > 20000 nM | > 20000 nM | 1900 nM | PCT_INHIB_HEPG2 (HepG2 cells; HepG2 cells, ref ChEMBL): 47; PCT_IHB_3D7 (P. falciparum 3D7 cells; P. falciparum 3D7, ref ChEMBL): 100; pXC50_3D7 (P. falciparum 3D7 cells; P. falciparum 3D7, ref ChEMBL): 6.118
